In BindingDB's records for doi:10.1046/j.1471-4159.1997.68062263.x (Dynamique Des Systemes Neuroendocriniens, 1997):
Numbered stars: 1 amine (or outer) side, 2 acyl side, 3 side chain; on linkers, the order of the positions; unused ones are H or OH. Bridge positions count the residues as written; N and C are the ends. Square brackets hold non-standard residues; d marks the D form. Peptide text beside a SMILES is read from it. ξ: configuration not given here. Phe(4-CH2NHiPr) = CC(C)NCc1ccc(C[C@H](N)C(=O)O)cc1; X1 = CC(C)NCc1ccc(C[C@@H](N[*:1])C(=O)[*:2])cc1; d1Nal = N[C@H](Cc1cccc2ccccc12)C(=O)O; Thr(3ξ) = CC(O)[C@H](N)C(=O)O; ξF = NC(Cc1ccccc1)C(=O)O; ξK = NCCCCC(N)C(=O)O; ξT = CC(O)C(N)C(=O)O

What was measured:
[1] = target: T1, Somatostatin receptor type 5 (Rattus norvegicus, UniProt P30938)
T1 sequence (P30938 whole entry): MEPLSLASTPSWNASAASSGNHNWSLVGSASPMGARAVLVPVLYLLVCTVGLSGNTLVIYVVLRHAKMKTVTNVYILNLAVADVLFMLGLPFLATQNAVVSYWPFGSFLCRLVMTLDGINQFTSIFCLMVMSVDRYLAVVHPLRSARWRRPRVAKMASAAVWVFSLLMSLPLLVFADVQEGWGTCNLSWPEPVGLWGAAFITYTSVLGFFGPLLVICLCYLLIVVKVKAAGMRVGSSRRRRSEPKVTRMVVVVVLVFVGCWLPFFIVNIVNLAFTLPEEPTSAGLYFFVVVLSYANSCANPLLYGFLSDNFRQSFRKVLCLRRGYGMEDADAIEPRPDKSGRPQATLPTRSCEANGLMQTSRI

[2] = target: Somatostatin receptor type 4 (Rattus norvegicus, UniProt P30937)
[3] = target: Somatostatin receptor type 3 (Rattus norvegicus, UniProt P30936)
[4] = target: Somatostatin receptor type 2 (Rattus norvegicus, UniProt P30680)
[5] = target: Somatostatin receptor type 1 (Rattus norvegicus, UniProt P28646)
Sequence of Somatostatin receptor type 1 (P28646 whole entry): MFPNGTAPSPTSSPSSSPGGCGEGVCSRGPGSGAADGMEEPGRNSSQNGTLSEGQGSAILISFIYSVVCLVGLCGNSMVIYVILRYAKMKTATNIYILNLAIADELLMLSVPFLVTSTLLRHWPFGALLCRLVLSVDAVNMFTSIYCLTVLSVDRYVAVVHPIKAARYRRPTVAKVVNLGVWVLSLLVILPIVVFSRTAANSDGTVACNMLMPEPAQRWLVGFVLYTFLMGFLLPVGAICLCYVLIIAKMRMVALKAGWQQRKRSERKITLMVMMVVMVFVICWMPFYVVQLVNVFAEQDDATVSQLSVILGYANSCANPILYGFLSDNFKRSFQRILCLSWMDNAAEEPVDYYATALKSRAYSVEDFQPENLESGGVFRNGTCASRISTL

Sequence of Somatostatin receptor type 3 (P30936 whole entry): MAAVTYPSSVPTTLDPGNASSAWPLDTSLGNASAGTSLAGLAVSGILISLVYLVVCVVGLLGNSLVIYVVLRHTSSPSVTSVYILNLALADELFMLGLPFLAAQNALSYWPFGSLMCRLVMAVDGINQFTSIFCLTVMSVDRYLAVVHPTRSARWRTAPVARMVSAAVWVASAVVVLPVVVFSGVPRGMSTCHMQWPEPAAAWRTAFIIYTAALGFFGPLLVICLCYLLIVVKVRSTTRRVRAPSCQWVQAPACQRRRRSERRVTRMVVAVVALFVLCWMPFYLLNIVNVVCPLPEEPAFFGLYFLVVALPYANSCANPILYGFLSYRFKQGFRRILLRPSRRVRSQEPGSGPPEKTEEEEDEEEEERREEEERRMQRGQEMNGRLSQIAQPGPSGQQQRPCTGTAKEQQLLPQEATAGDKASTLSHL
Sequence of Somatostatin receptor type 4 (P30937 whole entry): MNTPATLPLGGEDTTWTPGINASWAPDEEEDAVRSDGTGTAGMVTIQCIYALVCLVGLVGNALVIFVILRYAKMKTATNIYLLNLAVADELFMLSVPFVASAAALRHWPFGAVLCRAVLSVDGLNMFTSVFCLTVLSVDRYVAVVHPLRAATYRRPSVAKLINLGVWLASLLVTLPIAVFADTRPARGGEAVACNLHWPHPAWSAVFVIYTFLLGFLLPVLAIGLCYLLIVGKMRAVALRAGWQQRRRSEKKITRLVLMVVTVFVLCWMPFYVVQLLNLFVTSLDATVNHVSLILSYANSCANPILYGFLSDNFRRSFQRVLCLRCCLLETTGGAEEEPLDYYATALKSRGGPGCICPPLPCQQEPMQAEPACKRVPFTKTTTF
Sequence of Somatostatin receptor type 2 (P30680 whole entry): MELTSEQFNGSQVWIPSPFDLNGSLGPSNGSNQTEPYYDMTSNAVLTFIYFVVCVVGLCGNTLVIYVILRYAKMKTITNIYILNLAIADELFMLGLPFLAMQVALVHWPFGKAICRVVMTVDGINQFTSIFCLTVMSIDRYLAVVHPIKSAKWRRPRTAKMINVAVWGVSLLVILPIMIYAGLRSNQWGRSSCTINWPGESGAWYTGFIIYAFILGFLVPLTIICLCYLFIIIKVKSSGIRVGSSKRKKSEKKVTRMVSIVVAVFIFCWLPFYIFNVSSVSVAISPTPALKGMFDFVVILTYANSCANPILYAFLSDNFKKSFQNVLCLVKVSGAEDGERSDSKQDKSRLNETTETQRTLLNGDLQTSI

Question: For `C[C@H](N)C(=O)NCC(=O)N[C@@H]1CSSC[C@@H](C(=O)O)NC(=O)[C@H](CO)NC(=O)[C@@H]([C@@H](C)O)NC(=O)[C@H](Cc2ccccc2)NC(=O)[C@@H]([C@@H](C)O)NC(=O)[C@H](CCCCN)NC(=O)[C@@H](Cc2c[nH]c3ccccc23)NC(=O)[C@H](Cc2ccccc2)NC(=O)[C@@H](Cc2ccccc2)NC(=O)[C@H](CC(N)=O)NC(=O)[C@@H](CCCCN)NC1=O`, which Ki [1] is on record?
Answer: The Ki was 0.0026 µM.

Question: For `CC(C)[C@H](NC(=O)[C@H](CCCCN)NC(=O)[C@@H](Cc1c[nH]c2ccccc12)NC(=O)[C@H](Cc1ccc(O)cc1)NC(=O)[C@H](Cc1ccccc1)NC(=O)[C@@H](N)Cc1ccccc1)C(=O)N[C@@H](Cc1ccccc1)C(=O)N[C@H](Cc1cccc2ccccc12)C(N)=O` [BIM 23056] (H-FFY[dW]KVF[d1Nal]-NH2), which Ki [1] is on record?
Answer: The Ki was 0.0325 µM.

Question: For `CC(C)[C@H](NC(=O)[C@H](CCCCN)NC(=O)[C@@H](Cc1c[nH]c2ccccc12)NC(=O)[C@H](Cc1ccc(O)cc1)NC(=O)[C@H](Cc1ccccc1)NC(=O)[C@H](N)Cc1ccccc1)C(=O)N[C@@H](Cc1ccccc1)C(=O)N[C@H](Cc1cccc2ccccc12)C(N)=O` [BIM 23056] (H-[dF]FY[dW]KVF[d1Nal]-NH2), which Ki [2] is on record?
Answer: The Ki was 0.0838 µM.

Question: And the Ki [3]?
Answer: Its Ki is 0.38 µM.

Question: What about the Ki [4] of the same molecule?
Answer: Its Ki is 0.835 µM.

Question: And the Ki [5]?
Answer: Its Ki is 0.301 µM.

Question: Which Ki [2] does the source give for `C[C@@H](O)[C@H](NC(=O)[C@H](Cc1ccccc1)NC(=O)[C@@H](NC(=O)[C@H](CCCCN)NC(=O)[C@@H](Cc1c[nH]c2ccccc12)NC(=O)[C@H](Cc1ccccc1)NC(=O)[C@H](Cc1ccccc1)NC(=O)[C@H](N)Cc1ccccc1)[C@@H](C)O)C(N)=O` [CAS_133073-82-2] (H-[dF]FF[dW]KTFT-NH2) here?
Answer: Its Ki is 0.0084 µM.

Question: And the Ki [3]?
Answer: Its Ki is 0.0046 µM.

Question: And the Ki [4]?
Answer: Its Ki is 0.163 µM.

Question: And the Ki [1]?
Answer: The Ki was 0.0082 µM.

Question: `CC(C)NCc1ccc(C[C@@H]2NC(=O)[C@@H](Cc3c[nH]c4ccccc34)NC(=O)[C@H](Cc3ccccc3)NC(=O)[C@H](Cc3ccccc3)NC(=O)[C@H](CCCCN)NC(=O)[C@@H](N)CSSC[C@@H](C(=O)O)NC(=O)[C@H](CO)NC(=O)[C@H]([C@@H](C)O)NC(=O)[C@H](Cc3ccccc3)NC(=O)[C@H]([C@@H](C)O)NC2=O)cc1` [CH-275] (H-CKFF[dW][Phe(4-CH2NHiPr)]TFTSC-OH; disulfide 1-11) was tested. Which Ki [2] did it give?
Answer: The Ki was 0.465 µM.

Question: What about the Ki [3] of the same molecule?
Answer: The Ki was 0.577 µM.

Question: And the Ki [4]?
Answer: The Ki was 1 µM.

Question: What about the Ki [5] of the same molecule?
Answer: Its Ki is 0.0457 µM.

Question: With `CC(C)NCc1ccc(C[C@H]2NC(=O)[C@H](Cc3c[nH]c4ccccc34)NC(=O)C(Cc3ccccc3)NC(=O)C(Cc3ccccc3)NC(=O)C(CCCCN)NC(=O)[C@H](N)CSSC[C@H](C(=O)O)NC(=O)[C@@H](CO)NC(=O)[C@H](C(C)O)NC(=O)[C@@H](Cc3ccccc3)NC(=O)C(C(C)O)NC2=O)cc1` (stereo not given in full) [CH-275] (H-[dC][ξK][ξF][ξF]W[X1][ξT][dF][Thr(3ξ)][dS][dC]-OH; disulfide 1-11) as the molecule, how does the Ki [1] read?
Answer: The Ki was 0.279 µM.
